The values that follow come from patent US10844049B2, “GLP-1R agonists and uses thereof” (QILU REGOR THERAPEUTICS INC., priority 2018, dated 2020).

Each structure is given as a SMILES string. pEC50: −log10 of the molar value.

Chain of GLP1R (P43220 24-463): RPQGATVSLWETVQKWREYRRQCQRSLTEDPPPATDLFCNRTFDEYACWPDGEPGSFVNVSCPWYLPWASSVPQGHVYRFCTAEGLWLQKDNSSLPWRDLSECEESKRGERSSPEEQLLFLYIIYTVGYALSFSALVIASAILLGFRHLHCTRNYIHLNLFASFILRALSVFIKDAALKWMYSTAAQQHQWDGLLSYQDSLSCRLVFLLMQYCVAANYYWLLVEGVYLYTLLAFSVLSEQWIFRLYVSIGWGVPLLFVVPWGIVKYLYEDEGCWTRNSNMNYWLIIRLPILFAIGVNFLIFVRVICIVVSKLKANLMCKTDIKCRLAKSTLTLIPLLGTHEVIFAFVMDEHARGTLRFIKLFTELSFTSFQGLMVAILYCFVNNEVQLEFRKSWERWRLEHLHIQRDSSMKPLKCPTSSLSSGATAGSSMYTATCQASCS

The test concerns the target GLP1R (Homo sapiens, UniProt P43220). Description: GLP1R cAMP HTRF assay, HEK293/GLP-1R/CRE/Luc (HEK293T cells). The test is classed as cell-based. The following applies: read-out: EC50. The method, boiled down:
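cAMP accumulation via HTRF after 30 min, 37 °C exposure of 1000 receptor-expressing cells/well to compound (0.5% DMSO final) in IBMX (500 μM)/0.1% BSA DPBS.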
Consider `O=C(O)c1ccc2nc(CN3CCN(c4nc(OCc5ccc(Cl)cc5F)ncc4F)CC3)n(C[C@@H]3CCO3)c2c1` [Compound 179, (S)-2-((4-(2-(4-chloro-2-fluorobenzyloxy)-5-fluoropyrimidin-4-yl)piperazin-1-yl)methyl)-1-(oxetan-2-ylmethyl)-1H-benzo[d]imidazole-6-arboxylic acid], for which the pEC50 was no less than 7.82.
For `O=C(O)c1ccc2nc(CN3CCN(c4ncc(F)c(OCc5ccc(Cl)cc5F)n4)CC3)n(C[C@@H]3CCO3)c2c1` [Compound 180, (S)-2-((4-(4-(4-chloro-2-fluorobenzyloxy)-5-fluoropyrimidin-2-yl)piperazin-1-yl)methyl)-1-(oxetan-2-ylmethyl)-1H-benzo[d]imidazole-6-carboxylic add], the pEC50 is no less than 7.82.
With `O=C(O)c1ccc2nc(CN3CCN(c4nccc(OCc5ccc(Cl)cc5F)n4)CC3)n(C[C@@H]3CCO3)c2c1` [Compound 181, (S)-2-((4-(4-((4-chloro-2-fluorobenzyl)oxy)pyrimidin-2-yl)piperazin-1-yl)methyl)-1-(oxetan-2-ylmethyl)-1H-benzo[d]imidazole-6-carboxylic acid] the figure was no less than 7.82; with `CCn1cncc1Cn1c(CN2CC=C(c3cccc(OCc4ccc(C#N)cc4F)n3)CC2)nc2ccc(C(=O)O)cc21` [Compound 182, 2-((6-((4-cyano-2-fluorobenzyl)oxy)-3′,6′-dihydro-[2,4′-bipyridin]-1′(2′H)-yl)methyl)-1-((1-ethyl-1H-imidazol-5-yl)methyl)-1H-benzo[d]imidazole-6-carboxylic acid], no less than 7.82.
Then `CCn1cnc(Cn2c(CN3CC=C(c4cccc(OCc5ccc(C#N)cc5F)n4)CC3)nc3ccc(C(=O)O)cc32)c1` [Compound 183, 2-((6-((4-cyano-2-fluorobenzyl)oxy)-3′,6′-dihydro-[2H′-bipyridin]-1′(2′H)-yl)methyl)-1-((1-ethyl-1H-imidazol-4-yl)methyl)-1H-benzo[d]imidazole-6-carboxylic acid], with no less than 6.82; and `O=C(O)c1ccc2nc(CN3CCN(c4ccc(F)c(OCc5ccc(Cl)cc5F)c4)CC3)n(C[C@@H]3CCO3)c2c1` [Compound 184, (S)-2-((4-(3-((4-chloro-2-fluorobenzyl)oxy)-4-fluorophenyl)piperazin-1-yl)methyl)-1-(oxetan-2-ylmethyl)-1H-benzo[d]imidazole-6-carboxylic acid], with no less than 7.82.
Then `O=C(O)c1ccc2nc(CN3CCN(c4cc(F)cc(OCc5ccc(Cl)cc5F)c4)CC3)n(C[C@@H]3CCO3)c2c1` [Compound 185, (S)-2-((4-(3-((4-chloro-2-fluorobenzyl)oxy)-5-fluorophenyl)piperazin-1-yl)methyl)-1-(oxetan-2-ylmethyl)-1H-benzo[d]imidazole-6-carboxylic acid], with no less than 7.82; and `O=C(O)c1ccc2nc(CN3CCN(c4cc(OCc5ccc(Cl)cc5F)ccc4F)CC3)n(C[C@@H]3CCO3)c2c1` [Compound 186, (S)-2-((4-(5-(4-chloro-2-fluorobenzyloxy)-2-fluorophenyl)piperazin-1-yl)methyl)-1-(oxetan-2-ylmethyl)-1H-benzo[d]imidazole-6-carboxylic acid], with no less than 6.82.
On to `O=C(O)c1ccc2nc(CN3CCN(c4cc(F)c(F)c(OCc5ccc(Cl)cc5F)c4)CC3)n(C[C@@H]3CCO3)c2c1` [Compound 187, (S)-2-((4-(3-(4-chloro-2-fluorobenzyloxy)-4,5-difluorophenyl)piperazin-1-yl)methyl)-1-(oxetan-2-ylmethyl)-1H-benzo[d]imidazole-6-carboxylic acid], for which the pEC50 is no less than 7.82.
With `O=C(O)c1ccc2nc(CN3CCN(c4cc(OCc5ccc(Cl)cc5F)c(F)cc4F)CC3)n(C[C@@H]3CCO3)c2c1` [Compound 188] the figure was no less than 6.82.
With `O=C(O)c1ccc2nc(CN3CCN(c4cccc(OCc5ccc(C(F)(F)F)cc5)c4)CC3)n(C[C@@H]3CCO3)c2c1` [Compound 189], the pEC50 is no less than 6.82.
Then `O=C(O)c1ccc2nc(CN3CCN(c4cccc(OCc5ccc(C#CC6CC6)cc5F)c4)CC3)n(C[C@@H]3CCO3)c2c1` [Compound 190, (S)-2-((4-(3-((4-(cyclopropylethynyl)-2-fluorobenzyl)oxy)phenyl)piperazin-1-yl)methyl)-1-(oxetan-2-ylmethyl)-1H-benzo[d]imidazole-6-carboxylic acid], with no less than 6.82; and `N#Cc1ccc(COc2cccc(C3CCN(Cc4nc5ccc(C(=O)O)cc5n4C[C@@H]4CCO4)CC3)c2)c(F)c1` [Compound 191, (S)-2-((4-(3-((4-cyano-2-fluorobenzyl)oxy)phenyl)piperidin-1-yl)methyl)-1-(oxetan-2-ylmethyl)-1H-benzo[d]imidazole-6-carboxylic acid], with no less than 6.82; and `O=C(O)c1ccc2nc(CN3CCC(c4cccc(OCc5ccc(C#CC6CC6)cc5F)c4)CC3)n(C[C@@H]3CCO3)c2c1` [Compound 192, (S)-2-((4-(3-((4-(cyclopropylethynyl)-2-fluorobenzyl)oxy)phenyl)piperidin-1-yl)methyl)-1-(oxetan-2-ylmethyl)-1H-benzo[d]imidazole-6-carboxylic acid], with no less than 6.82.
With `N#Cc1ccc(COc2cccc(N3CCN(Cc4nc5ccc(C(=O)O)cc5n4C[C@@H]4CCO4)CC3)c2)c(F)c1` [Compound 193, (S)-2-((4-(3-(4-cyano-2-fluorobenzyloxy)phenyl)piperazin-1-yl)methyl)-1-(oxetan-2-ylmethyl)-1H-benzo[d]imidazole-6-carboxylic acid], the negative-log EC50 (pEC50) is no less than 6.82.
Then `N#Cc1ccc(COc2cc(N3CCN(Cc4nc5ccc(C(=O)O)cc5n4C[C@@H]4CCO4)CC3)ccc2F)c(F)c1` [Compound 195, (S)-2-((4-(3-((4-cyano-2-fluorobenzyl)oxy)-4-fluorophenyl)piperazin-1-yl)methyl)-1-(oxetan-2-ylmethyl)-1H-benzo[d]imidazole-6-carboxylic add], with no less than 7.82; and `O=C(O)c1ccc2nc(CN3CCN(c4ccc(F)c(OCc5ccc(C#CC6CC6)cc5F)c4)CC3)n(C[C@@H]3CCO3)c2c1` [Compound 196, (S)-2-((4-(3-((4-(cyclopropylethynyl)-2-fluorobenzyl)oxy)-4-fluorophenyl)piperazin-1-yl)methyl)-1-(oxetan-2-ylmethyl)-1H-benzo[d]imidazole-6-carboxylic add], with no less than 6.82.
Then `N#Cc1ccc(COc2ccc(F)c(N3CCN(Cc4nc5ccc(C(=O)O)cc5n4C[C@@H]4CCO4)CC3)c2)c(F)c1` [Compound 197, (S)-2-((4-(5-((4-cyano-2-fluorobenzyl)oxy)-2-fluorophenyl)piperazin-1-yl)methyl)-1-(oxetan-2-ylmethyl)-1H-benzo[d]imidazole-6-carboxylic add], with no less than 6.00; and `O=C(O)c1ccc2nc(CN3CCN(c4cc(OCc5ccc(C#CC6CC6)cc5F)ccc4F)CC3)n(C[C@@H]3CCO3)c2c1` [Compound 198, (S)-2-((4-(5-((4-(cyclopropylethynyl)-2-fluorobenzyl)oxy)-2-fluorophenyl)piperazin-1-yl)methyl)-1-(oxetan-2-ylmethyl)-1H-benzo[d]imidazole-6-carboxylic acid], with no less than 6.00.
